Active and inactive are the calls of the source. Cut-off read from the data, not from the text of the source, for most assays here: actives have a measured Kd and inactives only a lower limit.
How the values were obtained:
[1] = target: T1, Serine/threonine-protein kinase D2 (Homo sapiens, UniProt Q9BZL6)
T1 sequence (Q9BZL6 whole entry): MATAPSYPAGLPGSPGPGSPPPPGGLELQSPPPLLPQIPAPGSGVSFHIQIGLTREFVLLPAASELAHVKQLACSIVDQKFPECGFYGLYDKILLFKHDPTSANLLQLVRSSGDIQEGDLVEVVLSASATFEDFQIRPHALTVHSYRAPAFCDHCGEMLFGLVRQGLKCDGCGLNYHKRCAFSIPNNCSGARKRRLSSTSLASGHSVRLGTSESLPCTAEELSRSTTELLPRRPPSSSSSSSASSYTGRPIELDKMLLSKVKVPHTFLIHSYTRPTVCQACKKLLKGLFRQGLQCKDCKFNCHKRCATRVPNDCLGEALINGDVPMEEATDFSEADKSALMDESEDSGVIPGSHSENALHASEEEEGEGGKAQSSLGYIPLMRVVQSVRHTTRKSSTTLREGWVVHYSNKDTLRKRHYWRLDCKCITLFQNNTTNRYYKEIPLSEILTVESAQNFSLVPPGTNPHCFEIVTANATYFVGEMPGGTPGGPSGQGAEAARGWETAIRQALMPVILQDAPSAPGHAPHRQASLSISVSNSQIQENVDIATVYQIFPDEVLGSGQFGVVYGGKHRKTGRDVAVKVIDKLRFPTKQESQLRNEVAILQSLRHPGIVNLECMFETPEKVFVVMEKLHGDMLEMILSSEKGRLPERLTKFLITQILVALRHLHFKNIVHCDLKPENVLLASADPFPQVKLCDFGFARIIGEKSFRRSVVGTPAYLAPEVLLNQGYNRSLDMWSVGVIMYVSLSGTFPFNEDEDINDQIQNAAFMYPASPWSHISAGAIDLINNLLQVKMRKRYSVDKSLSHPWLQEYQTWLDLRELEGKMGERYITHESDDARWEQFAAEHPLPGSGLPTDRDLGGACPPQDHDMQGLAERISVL

[2] = target: Serine/threonine-protein kinase 16 (Homo sapiens, UniProt O75716)
Serine/threonine-protein kinase 16, sequence (O75716 whole entry): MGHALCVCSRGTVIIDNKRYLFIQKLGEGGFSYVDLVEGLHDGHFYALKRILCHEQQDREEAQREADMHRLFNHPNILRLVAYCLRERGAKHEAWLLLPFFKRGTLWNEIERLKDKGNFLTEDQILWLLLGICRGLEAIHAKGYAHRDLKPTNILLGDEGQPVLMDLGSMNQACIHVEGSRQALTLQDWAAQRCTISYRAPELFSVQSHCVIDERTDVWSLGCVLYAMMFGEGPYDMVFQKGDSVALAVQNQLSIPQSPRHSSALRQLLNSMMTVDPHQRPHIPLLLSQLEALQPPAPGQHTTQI

[3] = target: T2, NUAK family SNF1-like kinase 2 (Homo sapiens, UniProt Q9H093)
T2 sequence (Q9H093 whole entry): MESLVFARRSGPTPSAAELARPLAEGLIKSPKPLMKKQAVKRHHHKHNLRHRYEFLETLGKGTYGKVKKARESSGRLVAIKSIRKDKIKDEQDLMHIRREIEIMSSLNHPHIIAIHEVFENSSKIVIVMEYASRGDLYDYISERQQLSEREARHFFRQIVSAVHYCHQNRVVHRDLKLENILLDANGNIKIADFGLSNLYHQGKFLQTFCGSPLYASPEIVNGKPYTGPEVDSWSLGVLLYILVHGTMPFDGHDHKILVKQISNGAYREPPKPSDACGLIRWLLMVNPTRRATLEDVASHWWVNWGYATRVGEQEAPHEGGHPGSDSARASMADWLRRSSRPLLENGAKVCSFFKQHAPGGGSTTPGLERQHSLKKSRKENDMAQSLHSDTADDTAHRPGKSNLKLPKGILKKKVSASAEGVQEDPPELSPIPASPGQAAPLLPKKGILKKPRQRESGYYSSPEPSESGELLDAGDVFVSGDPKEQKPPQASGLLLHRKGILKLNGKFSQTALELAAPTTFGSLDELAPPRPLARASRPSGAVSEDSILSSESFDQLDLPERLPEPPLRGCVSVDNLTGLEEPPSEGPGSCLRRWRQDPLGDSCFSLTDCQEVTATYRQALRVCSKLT

[4] = target: T3, Phosphorylase b kinase gamma catalytic chain, liver/testis isoform (Homo sapiens, UniProt P15735)
T3 sequence (P15735 whole entry): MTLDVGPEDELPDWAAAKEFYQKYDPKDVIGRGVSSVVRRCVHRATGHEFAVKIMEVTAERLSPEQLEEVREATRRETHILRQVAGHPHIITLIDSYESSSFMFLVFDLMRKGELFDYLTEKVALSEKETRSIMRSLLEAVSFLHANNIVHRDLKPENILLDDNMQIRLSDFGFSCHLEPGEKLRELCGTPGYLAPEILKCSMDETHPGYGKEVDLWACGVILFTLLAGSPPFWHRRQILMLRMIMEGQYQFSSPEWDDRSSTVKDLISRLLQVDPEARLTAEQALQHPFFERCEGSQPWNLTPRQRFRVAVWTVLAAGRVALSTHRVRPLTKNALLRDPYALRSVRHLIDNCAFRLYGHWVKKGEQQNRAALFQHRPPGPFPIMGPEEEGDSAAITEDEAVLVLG

Wee1-like protein kinase = Wee1-like protein kinase (Homo sapiens, UniProt P30291)
Wee1-like protein kinase, sequence (P30291 whole entry): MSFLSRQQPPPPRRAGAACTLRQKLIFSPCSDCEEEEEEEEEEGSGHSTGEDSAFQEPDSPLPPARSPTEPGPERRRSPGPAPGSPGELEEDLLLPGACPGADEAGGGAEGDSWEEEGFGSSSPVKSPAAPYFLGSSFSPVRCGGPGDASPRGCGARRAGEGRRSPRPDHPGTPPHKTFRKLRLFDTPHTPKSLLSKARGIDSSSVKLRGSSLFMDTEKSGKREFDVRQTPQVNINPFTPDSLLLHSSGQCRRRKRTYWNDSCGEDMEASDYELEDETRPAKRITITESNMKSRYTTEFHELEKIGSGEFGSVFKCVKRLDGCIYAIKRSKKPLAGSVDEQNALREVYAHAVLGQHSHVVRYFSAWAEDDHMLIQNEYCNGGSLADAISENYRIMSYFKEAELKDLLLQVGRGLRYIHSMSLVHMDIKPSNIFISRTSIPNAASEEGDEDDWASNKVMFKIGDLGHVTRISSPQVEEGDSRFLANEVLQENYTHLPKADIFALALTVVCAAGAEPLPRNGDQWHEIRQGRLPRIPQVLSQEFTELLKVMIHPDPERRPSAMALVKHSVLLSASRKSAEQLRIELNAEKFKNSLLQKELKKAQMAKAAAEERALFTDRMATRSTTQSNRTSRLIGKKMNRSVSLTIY

[5] = target: T4, Glycogen phosphorylase, liver form (Homo sapiens, UniProt P06737); type: subcellular, K-562, COLO 205, SK-N-BE(2) and MV-4-11, Cell lysate; conditions: read-out: Kd apparent
T4 sequence (P06737 whole entry): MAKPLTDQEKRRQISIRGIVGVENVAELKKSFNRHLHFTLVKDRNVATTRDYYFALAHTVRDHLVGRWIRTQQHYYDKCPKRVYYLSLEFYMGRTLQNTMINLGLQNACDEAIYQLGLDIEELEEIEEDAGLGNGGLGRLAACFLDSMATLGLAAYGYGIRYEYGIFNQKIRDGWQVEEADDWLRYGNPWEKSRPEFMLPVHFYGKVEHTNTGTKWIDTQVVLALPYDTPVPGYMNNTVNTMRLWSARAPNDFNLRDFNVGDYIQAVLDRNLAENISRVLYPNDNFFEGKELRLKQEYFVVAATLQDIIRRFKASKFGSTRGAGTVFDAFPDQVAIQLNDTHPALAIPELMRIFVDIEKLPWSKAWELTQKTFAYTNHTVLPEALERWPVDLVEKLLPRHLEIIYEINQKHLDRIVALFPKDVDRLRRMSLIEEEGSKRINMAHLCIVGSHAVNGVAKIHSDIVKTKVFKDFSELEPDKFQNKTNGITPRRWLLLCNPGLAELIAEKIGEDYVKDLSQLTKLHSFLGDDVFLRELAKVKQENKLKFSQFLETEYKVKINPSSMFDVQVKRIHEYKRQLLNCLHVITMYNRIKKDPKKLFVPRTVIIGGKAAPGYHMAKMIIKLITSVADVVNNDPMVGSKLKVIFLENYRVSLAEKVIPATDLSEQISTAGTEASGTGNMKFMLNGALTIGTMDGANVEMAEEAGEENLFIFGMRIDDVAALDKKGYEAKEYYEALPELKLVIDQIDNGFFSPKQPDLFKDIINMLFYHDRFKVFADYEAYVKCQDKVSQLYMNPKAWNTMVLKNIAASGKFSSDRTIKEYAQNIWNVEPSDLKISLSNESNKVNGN

Focal adhesion kinase 1 = Focal adhesion kinase 1 (Homo sapiens, UniProt Q05397)
Focal adhesion kinase 1, sequence (Q05397 whole entry): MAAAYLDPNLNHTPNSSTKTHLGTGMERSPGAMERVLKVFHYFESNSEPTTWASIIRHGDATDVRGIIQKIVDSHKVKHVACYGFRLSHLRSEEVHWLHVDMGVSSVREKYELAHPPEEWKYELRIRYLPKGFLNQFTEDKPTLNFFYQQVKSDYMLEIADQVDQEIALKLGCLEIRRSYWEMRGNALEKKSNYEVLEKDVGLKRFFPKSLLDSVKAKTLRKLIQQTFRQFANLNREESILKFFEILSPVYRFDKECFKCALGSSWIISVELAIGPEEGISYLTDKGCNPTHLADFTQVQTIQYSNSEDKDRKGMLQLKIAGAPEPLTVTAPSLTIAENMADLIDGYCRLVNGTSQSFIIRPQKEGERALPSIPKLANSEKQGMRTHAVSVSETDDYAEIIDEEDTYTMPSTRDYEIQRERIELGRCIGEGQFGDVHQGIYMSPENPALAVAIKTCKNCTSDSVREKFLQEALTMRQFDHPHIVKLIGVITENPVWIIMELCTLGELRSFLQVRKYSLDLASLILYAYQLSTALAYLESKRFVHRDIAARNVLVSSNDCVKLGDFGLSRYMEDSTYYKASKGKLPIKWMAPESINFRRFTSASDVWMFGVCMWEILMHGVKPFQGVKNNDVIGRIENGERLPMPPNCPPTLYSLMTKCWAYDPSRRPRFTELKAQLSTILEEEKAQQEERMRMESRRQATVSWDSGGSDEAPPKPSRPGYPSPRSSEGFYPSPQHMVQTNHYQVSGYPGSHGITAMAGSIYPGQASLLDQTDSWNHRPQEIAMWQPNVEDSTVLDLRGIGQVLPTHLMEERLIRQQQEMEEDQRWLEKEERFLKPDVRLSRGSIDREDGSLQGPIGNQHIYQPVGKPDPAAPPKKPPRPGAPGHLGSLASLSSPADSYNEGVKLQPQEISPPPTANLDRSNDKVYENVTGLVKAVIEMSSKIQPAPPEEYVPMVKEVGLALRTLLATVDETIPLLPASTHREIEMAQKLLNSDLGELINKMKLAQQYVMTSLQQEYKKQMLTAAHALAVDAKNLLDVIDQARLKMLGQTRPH
Note: in the data inactive means no Kd found up to 30 µM.

| Compound | Kd [1] | Kd [2] | Kd [3] | Kd [4] | Kd (Wee1-like protein kinase) | Kd [5] | Kd (Focal adhesion kinase 1) |
| --- | --- | --- | --- | --- | --- | --- | --- |
| N[C@@H]1CCCN(c2c(/C=C3\SC(=O)NC3=O)cccc2-c2ccccc2)C1 | > 30 µM (inactive) | > 30 µM (inactive) | > 30 µM (inactive) | > 30 µM (inactive) | > 30 µM (inactive) | > 30 µM (inactive) | > 30 µM (inactive) |
| Cc1ccc(S(=O)(=O)Nc2nc3ccccc3nc2Nc2ccc3nsnc3c2)cc1 | > 30 µM (inactive) | > 30 µM (inactive) | > 30 µM (inactive) | > 30 µM (inactive) | > 30 µM (inactive) | > 30 µM (inactive) | > 30 µM (inactive) |
| CN1CC[C@@H](c2c(O)cc(O)c3c(=O)cc(-c4ccccc4Cl)oc23)[C@@H]1CO | > 30 µM (inactive) | > 30 µM (inactive) | > 30 µM (inactive) | > 30 µM (inactive) | > 30 µM (inactive) | > 30 µM (inactive) | > 30 µM (inactive) |
| Cc1cc(-c2cc(O)ccc2Cl)cc2nnc(Nc3ccc(OCCN4CCCC4)cc3)nc12 | 0.003 µM (active) | > 30 µM (inactive) | > 30 µM (inactive) | > 30 µM (inactive) | > 30 µM (inactive) | > 30 µM (inactive) | > 30 µM (inactive) |
| Cn1ncc(Cl)c1-c1cc(C(=O)N[C@H](CN)Cc2cccc(F)c2)sc1Cl [AFURESERTIB] | 3.91 µM (active) | > 30 µM (inactive) | > 30 µM (inactive) | > 30 µM (inactive) | > 30 µM (inactive) | > 30 µM (inactive) | > 30 µM (inactive) |
| CNS(=O)(=O)Nc1nccc(Cc2c(C)c3ccc(Oc4ncccn4)cc3oc2=O)c1F [AVUTOMETINIB] | > 30 µM (inactive) | > 30 µM (inactive) | > 30 µM (inactive) | > 30 µM (inactive) | > 30 µM (inactive) | > 30 µM (inactive) | > 30 µM (inactive) |
| O=C(c1ccc(F)c(F)c1Nc1ccc(I)cc1F)N1CC(O)([C@@H]2CCCCN2)C1 [COBIMETINIB] | > 30 µM (inactive) | > 30 µM (inactive) |  | > 30 µM (inactive) | > 30 µM (inactive) | > 30 µM (inactive) | > 30 µM (inactive) |
| CCc1cnn2c(NCc3ccc[n+]([O-])c3)cc(N3CCCC[C@H]3CCO)nc12 [DINACICLIB] | > 30 µM (inactive) | > 30 µM (inactive) | > 30 µM (inactive) | > 30 µM (inactive) | > 30 µM (inactive) | > 30 µM (inactive) |  |
| CN1CCN(c2ccc3nc(-c4c(N)c5c(F)cccc5[nH]c4=O)[nH]c3c2)CC1 [DOVITINIB] |  |  |  |  |  | > 30 µM (inactive) |  |
| Cc1cn(-c2cc(NC(=O)c3ccc(C)c(Nc4nccc(-c5cccnc5)n4)c3)cc(C(F)(F)F)c2)cn1 [NILOTINIB] |  |  |  |  |  | > 30 µM (inactive) |  |
| O=C(Nc1cccc(Cl)c1)Nc1ncc(CCNc2ncnc3ccsc23)s1 [SNS-314] |  | > 30 µM (inactive) | > 30 µM (inactive) |  | > 30 µM (inactive) | > 30 µM (inactive) |  |
| Nc1nc(N)c2nc(-c3cccc(O)c3)c(-c3cccc(O)c3)nc2n1 [TG100-115] |  |  |  |  |  | > 30 µM (inactive) |  |

Results, then the compound that gave them:

| Kd [1] | Kd [2] | Kd [3] | Kd [4] | Kd (Wee1-like protein kinase) | Kd [5] | Kd (Focal adhesion kinase 1) | Compound |
| --- | --- | --- | --- | --- | --- | --- | --- |
| > 30 µM (inactive) | > 30 µM (inactive) | > 30 µM (inactive) | > 30 µM (inactive) | 65.2 µM (active) | > 30 µM (inactive) | > 30 µM (inactive) | CCN1CCN(Cc2ccc(-c3cc4c(N[C@H](C)c5ccccc5)ncnc4[nH]3)cc2)CC1 [AEE-788] |
| 2.67 µM (active) | > 30 µM (inactive) | > 30 µM (inactive) | > 30 µM (inactive) | > 30 µM (inactive) | > 30 µM (inactive) | 0.074 µM (active) | COc1cc(N2CCC(N3CCN(C)CC3)CC2)ccc1Nc1ncnc(Nc2ccccc2S(=O)(=O)C(C)C)n1 [ASP-3026] |
| > 30 µM (inactive) | > 30 µM (inactive) | > 30 µM (inactive) | > 30 µM (inactive) | > 30 µM (inactive) | > 30 µM (inactive) | > 30 µM (inactive) | COc1cc(CCc2cc(NC(=O)c3ccc(N4C[C@@H](C)N[C@@H](C)C4)cc3)n[nH]2)cc(OC)c1 [AZD-4547] |
| > 30 µM (inactive) | > 30 µM (inactive) | > 30 µM (inactive) | > 30 µM (inactive) | > 30 µM (inactive) | > 30 µM (inactive) | > 30 µM (inactive) | Cc1cc([C@@H](C)Nc2ccccc2C(=O)O)c2nc(N3CCOCC3)cc(=O)n2c1 [AZD-6482] |
| > 30 µM (inactive) | > 30 µM (inactive) | > 30 µM (inactive) | > 30 µM (inactive) | > 30 µM (inactive) | > 30 µM (inactive) | > 30 µM (inactive) | COc1ccc(-c2ccc3c(N4CCOC[C@@H]4C)nc(N4CCOC[C@@H]4C)nc3n2)cc1CO [AZD-8055] |
|  | 0.21 µM (active) | 0.007 µM |  |  | > 30 µM (inactive) | 13 µM (active) | Cc1nc(N)sc1-c1ccnc(Nc2ccc(N3CCOCC3)cc2)n1 [CYC-116] |
|  | 0.702 µM (active) |  |  | > 30 µM (inactive) | > 30 µM (inactive) |  | Cc1cc(Nc2cc(N3CCN(C)CC3)nc(/C=C/c3ccccc3)n2)n[nH]1 [ENMD-2076] |
|  |  |  |  |  | > 30 µM (inactive) |  | CCn1c(-c2nonc2N)nc2c(C#CC(C)(C)O)ncc(OC[C@H]3CCCNC3)c21 [GSK-690693] |
| > 30 µM (inactive) | > 30 µM (inactive) | > 30 µM (inactive) | > 30 µM (inactive) | > 30 µM (inactive) | > 30 µM (inactive) |  | OCCn1cc(-c2cnc3nnn(Cc4ccc5ncccc5c4)c3n2)cn1 [PF-04217903] |

Reference: ChEMBL document CHEMBL3991601, “The target landscape of clinical kinase drugs” (Science, 2017)
